Measured values published in ChEMBL document CHEMBL6134768, “Design, synthesis, and structure-activity relationship studies of 6H-benzo[b]indeno[1,2-d]thiophen-6-one derivatives as DYRK1A/CLK1/CLK4/haspin inhibitors” (RSC Med Chem, 2025).

Assays:
[1] = target: Dual specificity tyrosine-phosphorylation-regulated kinase 1B (Homo sapiens) (UniProt Q9Y463); assay: Inhibition of human GST-tagged DYRK1B extracted from Escherichia coli assessed as residual activity using gamma-32 ATP and KKISGRLSPIMTEQ as substrate at 1 uM by radiometric kinase assay relative to control
Dual specificity tyrosine-phosphorylation-regulated kinase 1B (Homo sapiens), sequence (Q9Y463 whole entry, looked up): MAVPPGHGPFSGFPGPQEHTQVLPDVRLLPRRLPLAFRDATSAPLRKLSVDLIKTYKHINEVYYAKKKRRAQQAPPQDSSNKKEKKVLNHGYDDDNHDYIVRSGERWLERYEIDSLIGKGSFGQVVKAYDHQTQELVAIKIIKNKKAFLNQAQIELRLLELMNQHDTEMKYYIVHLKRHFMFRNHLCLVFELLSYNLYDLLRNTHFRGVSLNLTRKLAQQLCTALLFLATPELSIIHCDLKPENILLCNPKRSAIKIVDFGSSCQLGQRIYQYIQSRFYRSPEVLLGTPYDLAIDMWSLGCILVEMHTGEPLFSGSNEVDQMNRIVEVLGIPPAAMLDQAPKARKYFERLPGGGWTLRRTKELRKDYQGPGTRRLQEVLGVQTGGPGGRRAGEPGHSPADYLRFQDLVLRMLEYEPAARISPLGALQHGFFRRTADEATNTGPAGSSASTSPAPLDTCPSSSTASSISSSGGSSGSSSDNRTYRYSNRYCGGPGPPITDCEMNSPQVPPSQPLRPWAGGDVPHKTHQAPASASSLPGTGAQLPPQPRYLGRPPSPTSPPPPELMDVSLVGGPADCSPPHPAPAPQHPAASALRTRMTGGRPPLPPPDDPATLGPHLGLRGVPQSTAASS

[2] = Metabolic stability in rat liver microsomes assessed as half life; type: ADME, Microsome
[3] = rat, microsomes
[4] = target: Cyclin-dependent kinase 5/CDK5 activator 1 (Homo sapiens) (UniProt Q00535+Q15078); assay: Inhibition of CDK5/p25 (unknown origin) at 0.35 uM by Z-LYTE kinase activity assay relative to control; type: protein-complex assay
[5] = target: Dual specificity protein kinase CLK1 (Homo sapiens) (UniProt P49759); assay: Inhibition of CLK1 (unknown origin) at 0.35 uM by Z-LYTE kinase activity assay relative to control
Dual specificity protein kinase CLK1 (Homo sapiens), sequence (P49759 whole entry, looked up): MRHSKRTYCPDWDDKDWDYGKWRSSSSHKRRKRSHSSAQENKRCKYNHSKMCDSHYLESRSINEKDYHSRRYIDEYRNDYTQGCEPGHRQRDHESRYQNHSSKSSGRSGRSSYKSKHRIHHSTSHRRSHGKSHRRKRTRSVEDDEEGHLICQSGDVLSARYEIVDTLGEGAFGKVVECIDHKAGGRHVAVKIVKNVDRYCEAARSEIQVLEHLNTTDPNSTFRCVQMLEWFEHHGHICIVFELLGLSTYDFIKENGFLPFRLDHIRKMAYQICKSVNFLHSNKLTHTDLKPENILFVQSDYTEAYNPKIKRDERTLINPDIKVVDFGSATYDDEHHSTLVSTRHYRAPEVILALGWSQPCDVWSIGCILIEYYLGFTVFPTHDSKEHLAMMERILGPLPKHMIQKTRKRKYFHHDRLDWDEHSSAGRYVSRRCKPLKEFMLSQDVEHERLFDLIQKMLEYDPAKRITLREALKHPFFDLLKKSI

[6] = target: Dual specificity protein kinase CLK1 (Homo sapiens) (UniProt P49759); assay: Inhibition of CLK1 (unknown origin) at 0.35 uM by radiometric assay relative to control
[7] = target: Dual specificity protein kinase CLK3 (Homo sapiens) (UniProt P49761); assay: Inhibition of CLK3 (unknown origin) at 0.35 uM by Z-LYTE kinase activity assay relative to control
[8] = target: T1, Dual specificity protein kinase CLK4 (Homo sapiens, UniProt Q9HAZ1); assay: Inhibition of CLK4 (unknown origin) at 0.35 uM by LanthaScreen kinase binding assay relative to control
Target sequence in this assay (Q9HAZ1 whole entry, looked up): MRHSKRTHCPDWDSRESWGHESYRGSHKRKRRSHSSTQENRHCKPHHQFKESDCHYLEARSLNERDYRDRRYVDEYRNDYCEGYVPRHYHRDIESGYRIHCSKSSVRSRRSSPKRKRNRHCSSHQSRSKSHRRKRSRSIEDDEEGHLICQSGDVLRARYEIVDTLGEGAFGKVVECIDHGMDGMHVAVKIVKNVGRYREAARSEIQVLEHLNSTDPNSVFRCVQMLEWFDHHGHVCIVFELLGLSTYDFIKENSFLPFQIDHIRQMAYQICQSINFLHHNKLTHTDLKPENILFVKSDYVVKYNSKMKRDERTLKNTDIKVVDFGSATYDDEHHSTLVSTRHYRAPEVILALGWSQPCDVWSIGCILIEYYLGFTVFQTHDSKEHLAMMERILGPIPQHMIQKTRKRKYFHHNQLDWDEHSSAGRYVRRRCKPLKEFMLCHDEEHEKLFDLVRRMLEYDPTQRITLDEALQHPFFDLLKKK

[9] = target: T1, Dual specificity protein kinase CLK4; assay: Inhibition of CLK4 (unknown origin) at 0.35 uM by radiometric assay relative to control
Target sequence in this assay (Q9HAZ1 whole entry, looked up): as above

[10] = target: T2, Serine/threonine-protein kinase 17A (Homo sapiens) (UniProt Q9UEE5); assay: Inhibition of STK17A (DRAK1) (unknown origin) at 0.35 uM by LanthaScreen kinase binding assay relative to control
T2 sequence (whole entry): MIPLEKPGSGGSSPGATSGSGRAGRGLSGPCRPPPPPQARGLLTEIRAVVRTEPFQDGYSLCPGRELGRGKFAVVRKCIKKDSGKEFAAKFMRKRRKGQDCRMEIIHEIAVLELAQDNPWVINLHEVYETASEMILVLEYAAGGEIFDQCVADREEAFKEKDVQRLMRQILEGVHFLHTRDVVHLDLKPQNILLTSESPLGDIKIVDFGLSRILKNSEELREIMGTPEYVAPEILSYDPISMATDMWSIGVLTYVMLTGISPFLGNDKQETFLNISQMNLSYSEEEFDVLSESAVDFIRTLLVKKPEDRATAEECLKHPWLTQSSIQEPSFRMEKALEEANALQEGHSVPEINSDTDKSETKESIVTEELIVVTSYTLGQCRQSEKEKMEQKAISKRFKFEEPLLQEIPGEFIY

[11] = target: Dual specificity tyrosine-phosphorylation-regulated kinase 1B (Homo sapiens) (UniProt Q9Y463); assay: Inhibition of DYRK1B (unknown origin) at 0.35 uM by Z-LYTE kinase activity assay relative to control
[12] = target: Dual specificity tyrosine-phosphorylation-regulated kinase 1B (Homo sapiens) (UniProt Q9Y463); assay: Inhibition of DYRK1B (unknown origin) at 0.35 uM by radiometric assay relative to control
[13] = target: T3, Dual specificity tyrosine-phosphorylation-regulated kinase 2 (Homo sapiens) (UniProt Q92630); assay: Inhibition of DYRK2 (unknown origin) at 0.35 uM by LanthaScreen kinase binding assay relative to control
T3 sequence (whole entry): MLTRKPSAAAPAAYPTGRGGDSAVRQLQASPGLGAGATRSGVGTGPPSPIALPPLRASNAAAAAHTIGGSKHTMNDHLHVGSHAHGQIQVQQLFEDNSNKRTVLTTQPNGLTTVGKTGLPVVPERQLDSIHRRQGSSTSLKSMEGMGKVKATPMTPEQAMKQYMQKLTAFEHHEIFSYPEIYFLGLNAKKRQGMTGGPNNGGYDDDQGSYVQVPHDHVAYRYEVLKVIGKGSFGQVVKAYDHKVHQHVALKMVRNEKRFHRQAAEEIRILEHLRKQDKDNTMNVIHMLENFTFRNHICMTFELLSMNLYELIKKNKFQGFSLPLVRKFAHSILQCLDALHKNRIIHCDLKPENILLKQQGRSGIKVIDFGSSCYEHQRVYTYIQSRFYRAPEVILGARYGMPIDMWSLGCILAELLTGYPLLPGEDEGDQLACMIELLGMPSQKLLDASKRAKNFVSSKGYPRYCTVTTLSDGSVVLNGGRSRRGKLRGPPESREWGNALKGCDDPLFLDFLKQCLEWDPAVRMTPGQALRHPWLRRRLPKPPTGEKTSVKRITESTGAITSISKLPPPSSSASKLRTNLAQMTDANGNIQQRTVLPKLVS

[14] = target: T4, Dual specificity tyrosine-phosphorylation-regulated kinase 3 (Homo sapiens) (UniProt O43781); assay: Inhibition of DYRK3 (unknown origin) at 0.35 uM by Z-LYTE kinase activity assay relative to control
T4 sequence (whole entry): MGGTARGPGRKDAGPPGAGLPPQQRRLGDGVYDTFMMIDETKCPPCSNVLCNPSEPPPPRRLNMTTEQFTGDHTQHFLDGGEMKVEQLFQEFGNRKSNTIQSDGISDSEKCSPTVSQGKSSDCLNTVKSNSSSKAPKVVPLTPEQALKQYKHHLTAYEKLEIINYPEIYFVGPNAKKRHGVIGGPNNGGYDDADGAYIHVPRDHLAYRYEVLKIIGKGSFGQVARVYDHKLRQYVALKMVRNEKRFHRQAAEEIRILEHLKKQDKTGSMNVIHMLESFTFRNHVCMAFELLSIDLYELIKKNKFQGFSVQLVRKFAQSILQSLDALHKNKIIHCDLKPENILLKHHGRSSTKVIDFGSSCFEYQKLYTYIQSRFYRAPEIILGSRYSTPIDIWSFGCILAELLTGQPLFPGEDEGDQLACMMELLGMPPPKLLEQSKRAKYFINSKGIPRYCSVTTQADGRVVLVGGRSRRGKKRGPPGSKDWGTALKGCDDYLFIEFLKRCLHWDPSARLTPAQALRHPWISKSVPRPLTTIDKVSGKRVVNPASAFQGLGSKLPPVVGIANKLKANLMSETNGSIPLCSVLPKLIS

[15] = target: Epidermal growth factor receptor (Homo sapiens) (UniProt P00533); assay: Inhibition of EGFR (ErbB1) (unknown origin) at 0.35 uM by Z-LYTE kinase activity assay relative to control
[16] = target: T5, Serine/threonine-protein kinase haspin (Homo sapiens) (UniProt Q8TF76); assay: Inhibition of GSG2 (haspin) (unknown origin) at 0.35 uM by Adapta kinase activity assay relative to control
T5 sequence (whole entry): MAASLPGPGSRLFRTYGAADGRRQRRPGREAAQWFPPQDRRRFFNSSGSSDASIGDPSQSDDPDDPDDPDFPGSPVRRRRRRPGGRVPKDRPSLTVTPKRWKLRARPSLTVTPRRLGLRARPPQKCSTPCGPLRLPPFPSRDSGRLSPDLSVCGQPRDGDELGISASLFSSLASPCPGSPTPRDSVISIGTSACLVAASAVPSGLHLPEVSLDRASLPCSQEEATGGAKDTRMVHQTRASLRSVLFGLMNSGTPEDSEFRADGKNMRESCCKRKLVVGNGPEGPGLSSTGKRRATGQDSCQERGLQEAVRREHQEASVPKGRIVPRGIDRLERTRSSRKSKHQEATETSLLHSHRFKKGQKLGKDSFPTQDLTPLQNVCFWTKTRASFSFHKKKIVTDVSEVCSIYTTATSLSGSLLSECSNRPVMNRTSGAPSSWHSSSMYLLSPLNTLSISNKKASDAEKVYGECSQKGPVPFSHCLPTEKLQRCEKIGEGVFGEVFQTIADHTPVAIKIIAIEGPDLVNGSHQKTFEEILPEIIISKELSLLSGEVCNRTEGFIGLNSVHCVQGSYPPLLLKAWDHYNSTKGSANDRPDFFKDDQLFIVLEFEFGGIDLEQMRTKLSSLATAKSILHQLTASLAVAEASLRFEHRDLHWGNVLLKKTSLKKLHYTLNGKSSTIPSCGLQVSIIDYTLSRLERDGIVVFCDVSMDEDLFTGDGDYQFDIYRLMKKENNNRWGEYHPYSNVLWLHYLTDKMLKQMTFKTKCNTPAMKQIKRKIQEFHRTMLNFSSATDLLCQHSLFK

[17] = target: T5, Serine/threonine-protein kinase haspin (Homo sapiens); assay: Inhibition of GSG2 (haspin) (unknown origin) at 0.35 uM by radiometric assay relative to control
[18] = target: Myosin light chain kinase 2, skeletal/cardiac muscle (Homo sapiens) (UniProt Q9H1R3); assay: Inhibition of MLCK2 (unknown origin) at 0.35 uM by LanthaScreen kinase binding assay relative to control
Myosin light chain kinase 2, skeletal/cardiac muscle (Homo sapiens), sequence (Q9H1R3 whole entry): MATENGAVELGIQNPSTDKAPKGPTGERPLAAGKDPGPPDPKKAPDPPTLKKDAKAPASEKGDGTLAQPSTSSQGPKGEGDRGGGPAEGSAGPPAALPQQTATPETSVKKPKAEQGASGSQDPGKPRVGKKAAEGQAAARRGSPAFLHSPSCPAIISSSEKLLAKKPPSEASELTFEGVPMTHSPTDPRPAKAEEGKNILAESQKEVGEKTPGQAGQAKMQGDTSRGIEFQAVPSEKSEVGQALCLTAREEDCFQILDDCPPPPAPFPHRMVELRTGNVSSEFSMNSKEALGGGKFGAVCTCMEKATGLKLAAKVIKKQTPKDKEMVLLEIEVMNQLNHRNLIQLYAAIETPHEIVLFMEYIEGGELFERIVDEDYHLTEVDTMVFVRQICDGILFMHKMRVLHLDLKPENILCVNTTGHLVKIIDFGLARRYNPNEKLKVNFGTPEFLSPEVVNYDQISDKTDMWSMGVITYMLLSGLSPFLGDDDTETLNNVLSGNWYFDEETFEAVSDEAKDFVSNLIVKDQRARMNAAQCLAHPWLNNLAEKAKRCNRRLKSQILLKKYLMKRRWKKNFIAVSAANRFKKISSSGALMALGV

[19] = target: Homeodomain-interacting protein kinase 1 (Homo sapiens) (UniProt Q86Z02); assay: Inhibition of HIPK1 (Myak) (unknown origin) at 0.35 uM by Z-LYTE kinase activity assay relative to control
[20] = target: BDNF/NT-3 growth factors receptor (Homo sapiens) (UniProt Q16620); assay: Inhibition of NTRK2 (TRKB) (unknown origin) at 0.35 uM by Z-LYTE kinase activity assay relative to control
BDNF/NT-3 growth factors receptor (Homo sapiens), sequence (Q16620 32-822 limits assumed): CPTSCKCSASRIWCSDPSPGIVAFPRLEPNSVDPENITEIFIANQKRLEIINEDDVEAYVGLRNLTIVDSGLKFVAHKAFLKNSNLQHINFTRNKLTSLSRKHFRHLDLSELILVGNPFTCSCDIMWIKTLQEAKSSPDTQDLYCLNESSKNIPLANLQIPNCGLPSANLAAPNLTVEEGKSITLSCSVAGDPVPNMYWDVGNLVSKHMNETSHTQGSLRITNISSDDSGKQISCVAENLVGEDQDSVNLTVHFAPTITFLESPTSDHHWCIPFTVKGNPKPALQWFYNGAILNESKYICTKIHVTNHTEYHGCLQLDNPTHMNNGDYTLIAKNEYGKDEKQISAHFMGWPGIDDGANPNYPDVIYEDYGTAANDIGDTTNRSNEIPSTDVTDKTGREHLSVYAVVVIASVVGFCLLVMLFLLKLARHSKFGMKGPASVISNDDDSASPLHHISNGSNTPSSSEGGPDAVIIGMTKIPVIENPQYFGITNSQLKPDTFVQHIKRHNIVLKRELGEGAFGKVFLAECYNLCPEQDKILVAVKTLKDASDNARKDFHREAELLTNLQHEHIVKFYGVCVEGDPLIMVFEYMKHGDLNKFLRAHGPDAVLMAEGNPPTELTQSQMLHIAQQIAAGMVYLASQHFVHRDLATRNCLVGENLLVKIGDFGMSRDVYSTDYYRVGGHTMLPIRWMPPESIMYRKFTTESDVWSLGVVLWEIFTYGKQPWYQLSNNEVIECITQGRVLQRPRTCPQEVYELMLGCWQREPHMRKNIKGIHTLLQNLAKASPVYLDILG

[21] = target: Serine/threonine-protein kinase pim-1 (Homo sapiens) (UniProt P11309); assay: Inhibition of PIM1 (unknown origin) at 0.35 uM by Z-LYTE kinase activity assay relative to control
[22] = target: SRSF protein kinase 1 (Homo sapiens) (UniProt Q96SB4); assay: Inhibition of SRPK1 (unknown origin) at 0.35 uM by Z-LYTE kinase activity assay relative to control
SRSF protein kinase 1 (Homo sapiens), sequence (Q96SB4 whole entry): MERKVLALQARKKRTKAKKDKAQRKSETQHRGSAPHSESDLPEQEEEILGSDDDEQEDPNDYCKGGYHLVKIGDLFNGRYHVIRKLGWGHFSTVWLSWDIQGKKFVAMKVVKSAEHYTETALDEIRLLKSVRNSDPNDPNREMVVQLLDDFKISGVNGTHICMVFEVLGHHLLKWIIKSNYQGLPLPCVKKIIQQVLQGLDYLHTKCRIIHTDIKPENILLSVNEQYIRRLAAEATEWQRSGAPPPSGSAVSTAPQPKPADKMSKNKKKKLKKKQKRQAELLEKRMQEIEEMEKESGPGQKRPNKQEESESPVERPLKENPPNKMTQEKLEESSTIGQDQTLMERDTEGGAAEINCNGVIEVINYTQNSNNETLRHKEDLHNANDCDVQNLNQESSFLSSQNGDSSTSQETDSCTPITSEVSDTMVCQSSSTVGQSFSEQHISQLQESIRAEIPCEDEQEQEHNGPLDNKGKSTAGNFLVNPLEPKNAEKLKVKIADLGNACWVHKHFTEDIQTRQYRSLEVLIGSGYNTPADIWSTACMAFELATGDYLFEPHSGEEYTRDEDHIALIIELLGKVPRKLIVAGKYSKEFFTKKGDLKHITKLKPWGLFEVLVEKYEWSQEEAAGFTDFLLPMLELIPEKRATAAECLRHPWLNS

[23] = target: SRSF protein kinase 2 (Homo sapiens) (UniProt P78362); assay: Inhibition of SRPK2 (unknown origin) at 0.35 uM by Z-LYTE kinase activity assay relative to control
SRSF protein kinase 2 (Homo sapiens), sequence (P78362 whole entry, looked up): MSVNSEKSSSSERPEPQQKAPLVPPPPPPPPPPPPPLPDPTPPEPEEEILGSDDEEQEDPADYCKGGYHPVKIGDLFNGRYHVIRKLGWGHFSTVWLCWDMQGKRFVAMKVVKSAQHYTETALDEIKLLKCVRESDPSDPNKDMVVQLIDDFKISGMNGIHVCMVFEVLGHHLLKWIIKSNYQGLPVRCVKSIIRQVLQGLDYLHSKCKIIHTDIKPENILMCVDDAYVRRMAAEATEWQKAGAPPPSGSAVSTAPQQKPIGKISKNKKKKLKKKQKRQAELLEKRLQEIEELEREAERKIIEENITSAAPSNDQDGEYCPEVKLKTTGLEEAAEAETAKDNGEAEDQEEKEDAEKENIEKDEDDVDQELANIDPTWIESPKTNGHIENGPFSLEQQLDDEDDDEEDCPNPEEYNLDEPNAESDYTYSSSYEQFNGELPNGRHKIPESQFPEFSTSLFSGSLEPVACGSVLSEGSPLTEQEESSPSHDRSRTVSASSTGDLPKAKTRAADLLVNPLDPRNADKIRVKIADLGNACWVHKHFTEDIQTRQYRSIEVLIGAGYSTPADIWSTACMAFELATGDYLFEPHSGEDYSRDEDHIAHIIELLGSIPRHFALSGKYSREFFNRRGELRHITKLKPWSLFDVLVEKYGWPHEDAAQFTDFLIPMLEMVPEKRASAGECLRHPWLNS

[24] = target: Serine/threonine-protein kinase 33 (Homo sapiens) (UniProt Q9BYT3); assay: Inhibition of STK33 (unknown origin) at 0.35 uM by LanthaScreen kinase binding assay relative to control
Serine/threonine-protein kinase 33 (Homo sapiens), sequence (Q9BYT3 whole entry, looked up): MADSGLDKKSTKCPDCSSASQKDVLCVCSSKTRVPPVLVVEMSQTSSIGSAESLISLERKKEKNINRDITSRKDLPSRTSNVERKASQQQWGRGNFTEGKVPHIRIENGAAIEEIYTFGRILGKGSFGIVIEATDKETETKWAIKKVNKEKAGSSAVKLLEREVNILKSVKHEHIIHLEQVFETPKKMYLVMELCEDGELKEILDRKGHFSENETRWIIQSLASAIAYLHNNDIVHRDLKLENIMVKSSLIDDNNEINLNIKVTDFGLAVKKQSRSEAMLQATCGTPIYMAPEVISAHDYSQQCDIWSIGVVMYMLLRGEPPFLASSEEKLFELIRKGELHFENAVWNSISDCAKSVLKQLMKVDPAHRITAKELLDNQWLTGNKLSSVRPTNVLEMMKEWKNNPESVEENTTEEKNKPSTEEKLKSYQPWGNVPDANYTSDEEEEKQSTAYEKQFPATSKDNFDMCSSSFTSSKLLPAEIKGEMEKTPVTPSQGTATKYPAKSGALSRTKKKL

[25] = target: T1, Dual specificity protein kinase CLK4; assay: Inhibition of CLK4 (unknown origin) by LanthaScreen kinase binding assay relative to control
Target sequence in this assay (Q9HAZ1 whole entry): as the sequence (Q9HAZ1 whole entry, looked up) above

[26] = target: T1, Dual specificity protein kinase CLK4; assay: Inhibition of CLK4 (unknown origin) by radiometric assay relative to control
Target sequence in this assay (Q9HAZ1 whole entry): as the sequence (Q9HAZ1 whole entry, looked up) above

[27] = target: T6, Serine/threonine-protein kinase haspin (Homo sapiens, UniProt Q8TF76); assay: Inhibition of GSG2 (haspin) (unknown origin) by Adapta kinase activity assay relative to control
T6 sequence (Q8TF76 whole entry): T5 sequence (whole entry)

[28] = target: T6, Serine/threonine-protein kinase haspin; assay: Inhibition of GSG2 (haspin) (unknown origin) by radiometric assay relative to control
U-87 MG = assay: cells; settings: Homo sapiens, 72 h
cells = settings: Homo sapiens, U373 MG, 72 h
[29] = Metabolic stability in rat liver microsomes assessed as degradation; type: ADME, Microsome; settings: read-out: Drug degradation

SMILES: COc1ccc2sc3c(c2c1)-c1c(OC)cccc1C3=O
- Activity [1]: 68%
- t1/2 [2]: < 5 min
- CLH [3]: > 500 µL/min/mg

SMILES: COc1ccc2c(c1)C(=O)c1sc3ccc(O)cc3c1-2
- Activity [1]: 93%
- inhibition [4]: 8%
- inhibition [5]: 16%
- inhibition [6]: 93%
- inhibition [7]: 7%
- inhibition [8]: 95%
- inhibition [9]: 91%
- inhibition [10]: 42%
- inhibition [11]: 57%
- inhibition [12]: 47%
- inhibition [13]: 66%
- inhibition [14]: 5%
- inhibition [15]: 0%
- inhibition [16]: 95%
- inhibition [17]: 88%
- inhibition [18]: 15%
- inhibition [19]: 0%
- inhibition [20]: 0%
- inhibition [21]: 0%
- inhibition [22]: 6%
- inhibition [23]: 0%
- inhibition [24]: 8%
- IC50 [25]: 14 nM
- IC50 [26]: 26 nM
- IC50 [27]: 28 nM
- IC50 [28]: 76 nM
- IC50 (U-87 MG): 45900 nM

SMILES: COc1ccc2c(c1)-c1c(sc3ccc(OC)cc13)C2=O
- Activity ([1]; INHIBITOR): < 5%
- CLH [3]: 92.4 µL/min/mg

SMILES: COc1ccc2c(c1)C(=O)c1sc3ccccc3c1-2
- Activity ([1]; INHIBITOR): < 5%
- t1/2 [2]: 24.4 min
- CLH [3]: 94.8 µL/min/mg

SMILES: COc1ccc2c(c1)C(=O)c1sc3ccc(F)cc3c1-2
- Activity [1]: 78%
- Activity ([1]; INHIBITOR): < 5%
- t1/2 [2]: 16.8 min
- CLH [3]: 93.9 µL/min/mg

SMILES: COc1ccc2c(c1)C(=O)c1sc3ccc(OC)cc3c1-2
- Activity ([1]; INHIBITOR): < 5%
- t1/2 [2]: 18.9 min
- CLH [3]: 122 µL/min/mg

SMILES: COc1ccc2c(c1)-c1c(sc3ccccc13)C2=O
- Activity ([1]; INHIBITOR): < 5%
- t1/2 [2]: 33.7 min
- CLH [3]: 68.8 µL/min/mg

SMILES: O=C1c2ccccc2-c2c1sc1ccc(O)cc21
- Activity ([1]; INHIBITOR): < 5%
- IC50 (cells): > 100000 nM
- IC50 (U-87 MG): > 100000 nM

SMILES: COc1ccc2c(c1)-c1c(sc3ccc(O)cc13)C2=O
- Activity [1]: 89%
- metabolised [29]: 50%

SMILES: COc1ccc2sc3c(c2c1)-c1ccccc1C3=O
- Activity ([1]; INHIBITOR): 7%

SMILES: COc1cccc2c1C(=O)c1sc3ccc(O)cc3c1-2
- Activity [1]: 78%

SMILES: COc1cccc2c1-c1c(sc3ccccc13)C2=O
- Activity ([1]; INHIBITOR): < 5%
- t1/2 [2]: 6.5 min
- CLH [3]: 355.5 µL/min/mg

SMILES: COc1cccc2c1C(=O)c1sc3ccccc3c1-2
- Activity ([1]; INHIBITOR): < 5%
- t1/2 [2]: < 5 min
- CLH [3]: > 500 µL/min/mg
